Measured values taken from patent publication US20190240292A1, “METHODS OF ADMINISTERING HEPCIDIN” (priority 2016, published 2019).

Assays:
[1] = test system: serum iron levels; test: Subcutaneous hepcidin, effect on serum iron levels in mice (Example 1); assay type: in vivo; details: 50 μg subcutaneous, p<0.05
Excerpt: A study was designed to evaluate the effect of subcutaneous doses of hepcidin on serum iron levels in mice (n=6-7/group).

[2] = test system: serum iron levels; test: Subcutaneous hepcidin 50, 100, 200 μg, effect on serum iron levels in mice (Example 2); assay type: in vivo; details: for serum iron levels compared to vehicle: p<0.01
Method: A study was designed to evaluate doses of 50, 100, and 200 μg of hepcidin delivered subcutaneously and their effect on serum iron levels in mice (n=7/group). […] Conversely, 50 μg and 100 μg doses were elevated (p<0.01) compared to the vehicle at 24 hours post dose. The elevated levels of serum iron could be due to the system's reaction to the clearance of hepcidin. […] Mortality was likely related to the stress of the blood collection. Serum iron levels normalized 72 hours post dose.

[3] = test system: serum iron levels; test: Subcutaneous hepcidin 1, 5, 10, 50 mg, effect on serum iron levels in normal rats (Example 3); assay type: in vivo
Method: A study was designed to evaluate doses of 1, 5, 10, and 50 mg of hepcidin delivered subcutaneously and their effect on serum iron levels in normal rats (n=7/group). […] Tmax and Cmax were reached between 1 and 2 hours post dose for all dose groups, but the uptake between the high and mid dose were very similar at these time points. […] In the 5 mg dose, serum iron levels returned to pre-dose levels at 48 hours post dose.

[4] = Expanded acute study (NOAEL), single subcutaneous dose of hepcidin in dogs (Example 4); assay type: in vivo; details: for dose at which mixed cell infiltration in the administration site was found (microscopic): males and females
Method: Increased thickness in the administration site was observed on Day 4 at 50 mg/kg and on Day 15 at ≥25 mg/kg. Microscopic findings on Day 4 consisted of mixed cell infiltration in the administration site in males and females at ≥25 mg/kg, while on Day 15, microscopic findings at the administration site included mixed cell infiltration in males and females at ≥5 mg/kg, fibrosis in males at ≥25 mg/kg and in females at ≥5 mg/kg, and cystic space in males at 50 mg/kg and in females at ≥25 mg/kg.

[5] = test system: serum ferritin; test: Serum ferritin in sickle cell disease and hereditary hemochromatosis patients after hepcidin (Example 5); assay type: in vivo, human; details: 8 days post administration
Method: Hepcidin administration lowered ferritin blood levels in sickle cell patients with high baseline ferritin. A 1 milligram bolus of hepcidin was administered subcutaneously to two male patients with sickle cell disease (patients 1001 and 1002). Serum ferritin concentrations were measured at baseline as well as eight days post administration of hepcidin. Ferritin blood levels were lower 8 days post hepcidin administration in both patients (FIG. 1). Percent changes in ferritin blood levels for patients 1001 and 1002 were −45% and −61%, respectively (FIG. 3).
Hepcidin was administered to three hereditary hemochromatosis patients with normal baseline serum ferritin concentrations. Hereditary hemochromatosis patient 1003 was administered 1 mg of hepcidin, while two other patients (2001 and 2002) were administered 5 mg of hepcidin. Ferritin blood levels were measured in all patients eight days post hepcidin administration (FIG. 2). Percent change in ferritin blood levels among patients 1003, 2001, and 2002 were 25%, −19%, and 18%, respectively (FIG. 3).

[6] = test system: transferrin saturation (TSAT); test: Transferrin saturation (TSAT) in patients after hepcidin (Example 6); assay type: in vivo, human; details: for Transferrin saturation - percent change from baseline: eight days post administration
Method: Transferrin saturation (TSAT) was measured in patients described in Example 1. TSAT indicates the percent of iron-binding sites of transferrin that are occupied by iron, making TSAT an important tool in diagnosis and monitoring of blood disorders and disease. A one milligram bolus of hepcidin was administered to sickle cell disease patients 1001 and 1002 and hereditary hemochromatosis patient 1003, while patients 2001 and 2002 were administered 5 mg of hepcidin each. TSAT levels were measured eight days post hepcidin administration.

[7] = test system: serum iron concentration; test: Serum iron levels in patients after hepcidin (Example 7); assay type: in vivo, human
Method: Serum iron levels were measured in six patients with sickle cell disease patients and hereditary hemochromatosis patients post administration of hepcidin. Serum iron levels were measured prior to hepcidin administration (baseline) as well as post hepcidin administration at 2 hours, 4 hours, 8 hours, 24 hours, 48 hours, and […]. Patients were divided into two cohorts, cohort 1 was administered 1 mg of hepcidin and cohort 2 was administered 5 mg of hepcidin. Cohort 1 comprised sickle cell patients 1001 and 1002 as well as hereditary hemochromatosis patient 1003, while cohort 2 comprised hereditary hemochromatosis patients 2001, 2002, and 2004. Percent change of serum iron concentration for individual patients and average percent changes for both cohorts are shown in FIGS. 6 and 7. On average, hepcidin administration decreased serum iron concentration over an 8 day period by 35-40% in both cohorts.

[8] = based on animal data
[9] = Expanded acute study (NOAEL), hepcidin SC in Sprague Dawley rats (Example 4)
Method: A study was designed to evaluate doses of 5, 25, and 50 mg/kg of hepcidin (human equivalent dose of 0.8, 4, 8 mg/kg, respectively), delivered SC to Sprague Dawley rats (n=9/sex/group).

[10] = patient 1001, sickle cell disease, 1 mg
[11] = patient 1002, sickle cell disease, 1 mg
[12] = patient 1003, hereditary hemochromatosis, 1 mg
[13] = patient 2001, hereditary hemochromatosis, 5 mg
[14] = patient 2002, hereditary hemochromatosis, 5 mg
[15] = Sprague Dawley rats, 5, 25 and 50 mg/kg SC

In the case of `CC[C@H](C)[C@@H]1NC(=O)[C@@H](NC(=O)[C@@H](NC(=O)[C@@H]2CCCN2C(=O)[C@H](Cc2ccccc2)NC(=O)[C@H](Cc2c[nH]cn2)NC(=O)[C@@H](NC(=O)[C@@H](N)CC(=O)O)[C@@H](C)O)[C@@H](C)CC)CSSC[C@@H](C(=O)N[C@@H](CCCCN)C(=O)N[C@H](C(=O)O)[C@@H](C)O)NC(=O)[C@@H]2CSSC[C@@H]3NC(=O)[C@@H]4CSSC[C@H](NC(=O)[C@H](Cc5ccccc5)NC1=O)C(=O)N[C@@H](CSSC[C@H](NC(=O)[C@H](CCCCN)NC(=O)[C@H](CO)NC(=O)[C@H](CCCNC(=N)N)NC(=O)[C@H](Cc1c[nH]cn1)NC3=O)C(=O)NCC(=O)N[C@@H](CCSC)C(=O)N2)C(=O)NCC(=O)N4` [hepcidin], the “decrease in serum iron levels compared to vehicle (average)” value ([1]; 4 hours post dose) is reported as 40%, the “decrease in serum iron levels compared to vehicle (average)” value ([1]; 24 hours post dose) is reported as 15% and the “serum iron levels compared to vehicle” value ([2]; mice, 50 μg and 100 μg subcutaneous, 24 hours post dose) is reported as “elevated”. The “serum iron levels compared to vehicle” value ([2]; mice, 50, 100 and 200 μg subcutaneous, 4 hours post dose) was “significant decrease”, the “time post dose at which serum iron levels normalized” value ([2]; mice, subcutaneous) was 72 h and the mortality ([2]; mice, following the 4-hour blood collection, likely related to stress of blood collection) was “One mouse died”. The “time post dose at which serum iron levels returned to pre-dose levels” value ([3]; 5 mg subcutaneous) was 48 h, the “return of serum iron levels to pre-dose levels” value ([3]; 10 mg and 50 mg subcutaneous, 72 hours post dose) was “did not return to pre-dose levels” and the “effect on serum iron levels at 72 hours” value ([3]; 50 mg subcutaneous) was “still demonstrated an effect”. The serum iron levels ([3]; subcutaneous, all dose levels (1, 5, 10, 50 mg)) was “significant decrease”, the “time post dose of lowest serum iron concentrations” value ([3]; subcutaneous, all three doses) was 4 h and the lethargy ([3]; subcutaneous, any dose level) was “No lethargy was observed”. The NOAEL at 15 Day ([4]; both sexes, dog, in vivo, sc, dogs, single subcutaneous dose) was 5 mg/kg/day, the other adverse reactions ([4]; dogs, 5, 25 and 50 mg/kg single subcutaneous dose) was “hunched posture, soft feces, gross pathology finding of “thick,” and subcutaneous fibrosis, mixed cell infiltration, and cysts present at recovery period” and the “dose at which increased thickness in the administration site was observed” value ([4]; dogs, Day 4) was 50 mg/kg. For the same compound, the “dose at which increased thickness in the administration site was observed” value ([4]; dogs, Day 15) was no less than 25 mg/kg, the “dose at which cystic space at the administration site was found (microscopic)” value ([4]; dogs, females, Day 15) was no less than 25 mg/kg and the “dose at which fibrosis at the administration site was found (microscopic)” value ([4]; dogs, females, Day 15) was no less than 5 mg/kg. For the same compound, the “dose at which mixed cell infiltration in the administration site was found (microscopic)” value ([4]; dogs, Day 4) was no less than 25 mg/kg, the “dose at which mixed cell infiltration in the administration site was found (microscopic)” value ([4]; dogs, Day 15) was no less than 5 mg/kg and the “dose at which cystic space at the administration site was found (microscopic)” value ([4]; dogs, males, Day 15) was 50 mg/kg. The “dose at which fibrosis at the administration site was found (microscopic)” value ([4]; dogs, males, Day 15) was no less than 25 mg/kg, the “neutrophils and fibrinogen levels” value ([4]; dogs, up to Day 4, ≥25 mg/kg/day dose groups, not considered serious) was “temporary increases” and the “percent change in ferritin blood levels” value ([5]; patient 1001, sickle cell disease, 1 mg subcutaneous bolus) was −45%. For the same compound, the “percent change in ferritin blood levels” value ([5]; patient 1002, sickle cell disease, 1 mg subcutaneous bolus) was −61%, the “percent change in ferritin blood levels” value ([5]; patient 1003, hereditary hemochromatosis, normal baseline ferritin, 1 mg) was 25% and the “percent change in ferritin blood levels” value ([5]; patient 2001, hereditary hemochromatosis, normal baseline ferritin, 5 mg) was −19%. For the same compound, the “percent change in ferritin blood levels” value ([5]; patient 2002, hereditary hemochromatosis, normal baseline ferritin, 5 mg) was 18%, the “ferritin blood levels versus baseline” value ([5]; sickle cell disease patients 1001 and 1002 (high baseline ferritin), 1 mg subcutaneous bolus) was “lower” and the “TSAT at day eight versus baseline” value ([6]; all patients (1001, 1002, 1003 at 1 mg; 2001, 2002 at 5 mg)) was “percent decrease”. For the same compound, the “Transferrin saturation - percent change from baseline” value [6, 10] was −19%, the “Transferrin saturation - percent change from baseline” value [6, 11] was −62% and the “Transferrin saturation - percent change from baseline” value [6, 12] was −27%. The “Transferrin saturation - percent change from baseline” value [6, 13] was −26%, the “Transferrin saturation - percent change from baseline” value [6, 14] was −40% and the “average decrease of serum iron concentration over an 8 day period” value ([7]; both cohorts (cohort 1: 1 mg; cohort 2: 5 mg)) was 35-40%. For the same compound, the “efficacy in human subjects” value ([7]; doses of 1 mg and 5 mg hepcidin) was “display efficacy”, the “Serum iron concentration, maximum observed percentage change from baseline” value [7, 10] was −6% and the “Serum iron concentration, percentage change from baseline 8 days after administration of hepcidin” value [7, 10] was −4%. The “Serum iron concentration, maximum observed percentage change from baseline” value [7, 11] was −69%, the “Serum iron concentration, percentage change from baseline 8 days after administration of hepcidin” value [7, 11] was −69% and the “Serum iron concentration, maximum observed percentage change from baseline” value [7, 12] was −37%. The “Serum iron concentration, percentage change from baseline 8 days after administration of hepcidin” value [7, 12] was −37%, the “Serum iron concentration, maximum observed percentage change from baseline” value [7, 13] was −53% and the “Serum iron concentration, percentage change from baseline 8 days after administration of hepcidin” value [7, 13] was −40%. The “Serum iron concentration, maximum observed percentage change from baseline” value [7, 14] was −24%, the “Serum iron concentration, percentage change from baseline 8 days after administration of hepcidin” value [7, 14] was −24% and the “Serum iron concentration, maximum observed percentage change from baseline” value ([7]; patient 2004, hereditary hemochromatosis, 5 mg) was −35%. For the same compound, the “dose that may cause adverse effects in humans” value [8] was “about 200 mg”, the adverse effects [9, 15] was “No unexpected adverse effects were observed” and the “food consumption and body weight gain” value [9, 15] was “non-adverse, dose-independent, reductions”. The injection site finding [9, 15] was “induration”, the “reticulocytes and iron concentration” value [9, 15] was “dose-dependent reversible decreases” and the “unsaturated iron binding capacity” value [9, 15] was “increased”. For the same compound, the “average serum iron levels compared to vehicle and pre-dose levels” value ([9]; Sprague Dawley rats, 5, 25 and 50 mg/kg SC, all doses) was “significantly decreased”, the “time post dose of lowest serum iron level” value ([9]; Sprague Dawley rats, 5, 25 and 50 mg/kg SC, all three doses) was 4 h and the NOAEL ([9]; both, Sprague Dawley, rat, in vivo, sc) was 50 mg/kg/day.
